Measured values reported in article PMC9249127, “Bio-Evaluation of ^99mTc-Labeled Homodimeric Chalcone Derivative as Amyloid-β-Targeting Probe” (Frontiers in Medicine, 2022).
Like-named read-outs stand apart in the source and are kept apart here.

How the values were obtained:
[1] = Cytotoxicity MTT assay; format: cell-based, Human; details: human, HEK 293 cells, read-out: cell viability
Method: (§1) In vitro cytotoxicity studies were performed for DT(Ch)2 in the concentration range of 0.5–50 μg/mL against HEK 293 cell lines seeded in 96-well plates. The experimental procedure followed was in accordance with the previously reported literature ([32]). […] Cell cultures were grown in DMEM (Dulbecco’s modified eagle medium, high glucose) and the culture was supplemented with 1% penicillin streptomycin and 10% FBS (fetal bovine serum). The cells were incubated with different compound concentrations in a 5% CO2 incubator at 37°C. Following the addition of MTT [3-(4,5-dimethylthiazol-2-yl)-2,5-diphenyl-2H-tetrazolium bromide] to each cell (100 μL), the systems were incubated for an additional 4 h. The cell viability was reported in accordance with the mitochondrial activity measured via absorbance at 570 nm. The experiments were performed in triplicates.

[2] = system: HEK 293 cells; test: Cytotoxicity MTT assay; format: cell-based, Human; details: 0.5–50 μg/mL, after 48 h of incubation
Method: as §1

[3] = Hemolysis assay; format: cell-based; details: human, red blood cells (washed RBC pellet resuspended in PBS), pH 7.4; RBCs, 0.125–2 mg/mL of ligand
Method: In accordance with the previous literature, heparinized blood from healthy volunteers was used for the hemolysis assay ([33]). Blood serum was separated by centrifugation and the obtained RBC pellet was washed with PBS (pH = 7.4) repeatedly. The pellet was finally resuspended in PBS and added in equal amounts to different vials. Similarly, varying concentrations of the ligand in equal volume were incubated with the RBC pellet in the ratio of 8:2 at 37°C. The Triton X-100 and phosphate buffer saline as positive and negative control, respectively, were also incubated with RBCs under similar conditions. A total of 100 μL of solvent was centrifuged and removed at each time point: 15 min, 1, 2, 4, and 24 h. The absorbance of the supernatant was measured at 541 nm wavelength in a 96-well plate by a Synergy 2 Multi-Mode Reader (BioTek Instruments, United States). The experiments were carried out in triplicates and the extent of hemolysis was calculated according to the following formula:
Hemolysisratio=(λ(test)-λ(negativecontrol))/(λ(positivecontrol)-λ(negativecontrol))×100%

[4] = cited from earlier work
[5] = target: Aβ aggregates; details: cited from earlier work

## CN(C)c1ccc(/C=C/C(=O)c2ccc(OCCNC(=O)CN(CCN(CCN(CC(=O)O)CC(=O)NCCOc3ccc(C(=O)/C=C/c4ccc(N(C)C)cc4)cc3)CC(=O)O)CC(=O)O)cc2)cc1 [DT(Ch)2, 6,9-bis(carboxymethyl)-14-(4-[(E)-3-(4-(dimethylamino)phenyl)acryloyl]phenoxy)-3-(2-[(2-(4-[(E)-3-(4-(dimethylamino)phenyl)acryloyl]phenoxy)ethyl)amino]-2-oxoethyl)-11-oxo-3,6,9,12-tetraazatetradecanoic acid]
[1]; throughout the concentration range and observation time
  viability: ~85%
[1]; up to 24 h
  viability: 88 to 95%
[2]
  toxicity (MTT assay): < 17%
[3]
  hemolysis: < 5%

## CNc1ccc(-c2nc3ccc(O)cc3s2)cc1 [PiB, Pittsburgh compound B]
[4]
  ratio of brain2min/brain30min: 12

## O=C([O-])CN(CCN(CC(=O)[O-])CC(=O)[O-])CCN(CC(=O)[O-])CC(=O)[O-].[99Tc+4] [^99mTc–DTPA]
[4]; after 30 min, known value, no reference given
  brain uptake: 0.04%

## CN(C)c1ccc(C=CC(=O)c2ccc(I)cc2)cc1 [^125I-DMIC]
[5]
  Kd: 4.2 nM
